Converted amounts (≈) assume the structure as drawn. The source made the active and inactive calls. The rule behind the calls is not given here.
Legend:
[1] = system: Mycobacterium tuberculosis; assay: Antimycobacterial activity against Mycobacterium tuberculosis H37Ra assessed as inhibition of bacterial growth measured for 5 days by luminometer; type: functional; conditions: 120 h, time 5 day
[2] = system: Mycobacterium marinum; assay: Antimycobacterial activity against Mycobacterium marinum assessed as inhibition of bacterial growth measured for 5 days by luminometer; type: functional; conditions: 120 h, time 5 day
[3] = Octanol-water distribution coefficient, logD of the compound at pH 7.4 by HPLC analysis; type: physicochemical
[4] = Kinetic solubility of compound in DMSO at pH 2 incubated for 30 mins by laser nephelometry; type: physicochemical; conditions: read-out: Kinetic_solubility
[5] = Kinetic solubility of compound in DMSO at pH 6.5 incubated for 30 mins by laser nephelometry; type: physicochemical; conditions: read-out: Kinetic_solubility
[6] = Metabolic stability in mouse liver microsomes assessed as half life incubated for 60 mins in presence of NADPH; type: ADME, Microsome
[7] = Metabolic stability in mouse liver microsomes assessed as intrinsic clearance incubated for 60 mins in presence of NADPH; type: ADME, Microsome; conditions: read-out: CLH
[8] = system: Mycobacterium tuberculosis; assay: Antimycobacterial activity against Mycobacterium tuberculosis H37Ra infected in mouse assessed as reduction in relative light unit in lung at 300 mg/kg,po administrated once daily for 5 days; type: functional, organism-based; conditions: time 5.0 day
[9] = system: A549; assay: Cytotoxicity against human A549 cells incubated for 48 hrs by MTT assay; type: functional, cell-based; conditions: A549, 48 h

Structure (SMILES): COc1cccc(CSc2ccc3nc(-c4ccccc4)c(OC)n3n2)c1
- MIC90 [1]: ≤ 1.66 µM
- MIC90 [2]: 2.65 µM (≈ 1 µg/mL)
- logD [3]: 4.8
- solubility kinetic at 0.5 h [4]: 3.1 µg/mL (≈ 8.21 µM)
- solubility kinetic at 0.5 h [5]: < 1.6 µg/mL
- half-life [6]: < 2 min
- microsomal CLint [7]: > 866 µL/min/mg
- Activity [8]: inactive
- IC50 [9]: > 260 µM

Source: ChEMBL document CHEMBL5625205, “3-Methoxy-2-phenylimidazo[1,2-b]pyridazines highly active against Mycobacterium tuberculosis and Mycobacterium marinum” (Eur J Med Chem, 2023)
